{"source": "ChEMBL document CHEMBL4680259", "about": "“Discovery of bazedoxifene analogues targeting glycoprotein 130” (Eur J Med Chem, 2020)", "key": {"[1]": {"molecular_target": "T1, Estrogen receptor (Homo sapiens, UniProt P03372)", "T1 sequence (P03372 whole entry)": "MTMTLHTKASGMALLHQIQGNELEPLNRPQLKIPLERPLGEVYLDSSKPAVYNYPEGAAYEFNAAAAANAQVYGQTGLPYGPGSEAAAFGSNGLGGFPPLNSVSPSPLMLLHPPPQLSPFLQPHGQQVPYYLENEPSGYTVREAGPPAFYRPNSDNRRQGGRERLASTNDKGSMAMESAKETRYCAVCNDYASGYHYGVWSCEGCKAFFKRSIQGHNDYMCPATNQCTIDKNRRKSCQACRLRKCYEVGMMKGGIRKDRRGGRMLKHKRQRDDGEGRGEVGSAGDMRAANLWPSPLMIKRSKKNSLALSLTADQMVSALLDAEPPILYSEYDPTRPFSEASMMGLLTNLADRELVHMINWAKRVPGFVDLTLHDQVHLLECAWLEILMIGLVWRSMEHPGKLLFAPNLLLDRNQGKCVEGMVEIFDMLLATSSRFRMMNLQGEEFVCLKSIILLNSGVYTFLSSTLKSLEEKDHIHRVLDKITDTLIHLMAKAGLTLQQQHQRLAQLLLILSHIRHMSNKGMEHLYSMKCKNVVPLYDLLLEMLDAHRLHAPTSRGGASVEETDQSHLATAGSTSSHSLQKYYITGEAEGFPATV", "experiment": "Binding affinity to ERalpha (unknown origin) by SPR assay"}, "[2]": {"molecular_target": "T2, Interleukin-6 receptor subunit beta (Homo sapiens) (UniProt P40189)", "T2 sequence (whole entry)": "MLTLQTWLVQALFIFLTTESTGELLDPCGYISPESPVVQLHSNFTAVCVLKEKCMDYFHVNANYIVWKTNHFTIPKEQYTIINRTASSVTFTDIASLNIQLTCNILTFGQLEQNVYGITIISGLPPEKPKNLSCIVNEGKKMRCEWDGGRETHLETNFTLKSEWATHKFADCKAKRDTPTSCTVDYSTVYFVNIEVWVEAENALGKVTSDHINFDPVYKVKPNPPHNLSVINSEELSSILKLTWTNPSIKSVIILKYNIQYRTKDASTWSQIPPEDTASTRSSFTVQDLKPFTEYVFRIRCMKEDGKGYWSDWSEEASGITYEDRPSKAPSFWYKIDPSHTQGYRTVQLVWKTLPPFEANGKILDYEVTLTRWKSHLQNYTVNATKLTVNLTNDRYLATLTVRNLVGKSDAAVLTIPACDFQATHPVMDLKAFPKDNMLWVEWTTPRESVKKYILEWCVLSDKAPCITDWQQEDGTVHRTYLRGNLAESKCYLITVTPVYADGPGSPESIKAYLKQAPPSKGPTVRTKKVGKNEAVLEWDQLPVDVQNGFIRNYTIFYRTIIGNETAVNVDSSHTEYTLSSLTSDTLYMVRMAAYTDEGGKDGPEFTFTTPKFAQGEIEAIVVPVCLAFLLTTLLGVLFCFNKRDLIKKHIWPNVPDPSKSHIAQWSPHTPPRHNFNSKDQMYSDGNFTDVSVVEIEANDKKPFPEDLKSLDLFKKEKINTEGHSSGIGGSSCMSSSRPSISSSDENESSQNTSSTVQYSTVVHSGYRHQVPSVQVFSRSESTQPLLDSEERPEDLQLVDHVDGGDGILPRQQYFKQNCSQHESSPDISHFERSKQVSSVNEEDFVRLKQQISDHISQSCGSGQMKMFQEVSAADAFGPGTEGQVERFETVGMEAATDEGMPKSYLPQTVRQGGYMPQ", "experiment": "Binding affinity to immobilized GP130 (unknown origin) assessed as response unit at 20 uM by SPR analysis"}, "[3]": {"molecular_target": "T2, Interleukin-6 receptor subunit beta (Homo sapiens)", "experiment": "Binding affinity to GP130 in human A549 cell lysates assessed as decrease in pronase mediated protein degradation by measuring increase in abundance of GP130 band at 100 to 1000 uM preincubated for 1 hr followed by pronase addition for 30 mins by DARTS assay", "format": "subcellular", "details": "dose 100-1000 µM, time 90.0 min"}, "[4]": {"molecular_target": "T2, Interleukin-6 receptor subunit beta (Homo sapiens)", "experiment": "Binding affinity to D2/D3 domain of FLAG-tagged GP130 (unknown origin) expressed in HEK293 cells assessed as inhibition of rhIL6/Myc-tagged IL6R interaction with GP130 at 10 uM preincubated for 4 hrs followed by stimulation with recombinant human IL6 for 30 mins by co-immunoprecipitation method", "format": "cell-based", "details": "time 270.0 min"}, "[5]": {"molecular_target": "T2, Interleukin-6 receptor subunit beta (Homo sapiens)", "experiment": "Inhibition of GP130 in human A549 cells assessed as reduction in STAT3 dimer DNA binding activity in nuclear extract in presence of hSIE probe at 3 to 9 uM after 24 hrs by EMSA analysis", "format": "subcellular", "details": "Nucleus, dose 3-9 µM"}, "[6]": {"molecular_target": "T2, Interleukin-6 receptor subunit beta (Homo sapiens)", "experiment": "Inhibition of GP130 in human A549 cells assessed as reduction in bcl2 protein expression after 24 hrs by Western blot analysis", "format": "cell-based", "details": "dose 3-9 µM"}, "[7]": {"molecular_target": "T2, Interleukin-6 receptor subunit beta (Homo sapiens)", "experiment": "Inhibition of GP130 in human A549 cells assessed as reduction in survivin protein expression after 24 hrs by Western blot analysis", "format": "cell-based", "details": "dose 3-9 µM"}, "[8]": {"system": "A549", "experiment": "Induction of apoptosis in human A549 cells assessed as increase in cleaved caspase-7 level at 3 to 9 uM incubated for 24 hrs by Western blot analysis", "format": "functional, cell-based", "details": "dose 3-9 µM"}, "[9]": {"system": "A549", "experiment": "Induction of apoptosis in human A549 cells assessed as necrotic cells at 3 uM incubated for 24 hrs by annexin V-FITC and propidium iodide staining based flow cytometry analysis (reference value: 0.4 %)", "format": "functional"}, "[10]": {"system": "A549", "experiment": "Induction of apoptosis in human A549 cells assessed as viable cells at 6 uM incubated for 24 hrs by annexin V-FITC and propidium iodide staining based flow cytometry analysis (reference value: 97.7 %)", "format": "functional", "details": "read-out: Activity"}, "[11]": {"system": "A549", "experiment": "Induction of apoptosis in human A549 cells assessed as late apoptotic cells at 6 uM incubated for 24 hrs by annexin V-FITC and propidium iodide staining based flow cytometry analysis (reference value: 1.4 %)", "format": "functional"}, "[12]": {"system": "A549", "experiment": "Induction of apoptosis in human A549 cells assessed as viable cells at 9 uM incubated for 24 hrs by annexin V-FITC and propidium iodide staining based flow cytometry analysis (reference value: 97.7 %)", "format": "functional", "details": "read-out: Activity"}, "[13]": {"system": "A549", "experiment": "Induction of apoptosis in human A549 cells assessed as necrotic cells at 9 uM incubated for 24 hrs by annexin V-FITC and propidium iodide staining based flow cytometry analysis (reference value: 0.4 %)", "format": "functional"}, "[14]": {"system": "A549", "experiment": "Induction of ROS generation in human A549 cells assessed as fold increase in ROS level at 6 uM after 24 hrs by DCFH-DA staining based flow cytometric analysis relative to control", "format": "functional"}, "[15]": {"experiment": "Half life in rat at 5 mg/kg, ig", "format": "ADME, organism-based", "details": "in vivo, po"}, "[16]": {"experiment": "Half life in rat at 0.5 mg/kg, iv", "format": "ADME, organism-based", "details": "in vivo"}, "[17]": {"experiment": "AUC (0 to t) in rat at 0.5 mg/kg, iv", "format": "ADME, organism-based", "set-up": "dose 0.5 mg/kg", "details": "in vivo"}, "[18]": {"experiment": "AUC (0 to infinity) in rat at 5 mg/kg, ig", "format": "ADME, organism-based", "set-up": "route […], time infinity, dose 5 mg/kg", "details": "in vivo, po"}, "[19]": {"experiment": "Bioavilability in rat at 5 mg/kg, ig", "format": "ADME, organism-based", "details": "in vivo, po"}, "[20]": {"system": "A549", "experiment": "Antitumor activity against human A549 cells xenografted in nude mouse assessed as decrease in tumor weight at 10 mg/kg, ip administered daily for 21 days and measured every 2 to 3 days", "format": "functional", "details": "504 h, time 21 day"}}, "note": "Calls of active or inactive are those of the source. The calls are words filed in the database; no cut-off is given here."}
{"smiles": "NC(=O)N1N=C(c2ccc(C(F)(F)F)cc2)CC1c1cn(Cc2ccc(OCCN3CCCCCC3)cc2)c2ccc(Br)cc12", "note": "(stereo not given)", "values": [{"measurement": "Kd", "setting": "[1]", "value": 47.2, "unit": "µM"}, {"measurement": "Activity", "setting": "[2]", "value": 28.3, "unit": "RU"}, {"measurement": "Activity", "setting": "[3]", "value": "Active"}, {"measurement": "Activity", "setting": "[4]", "value": "inactive"}, {"measurement": "inhibition", "setting": "[5]", "value": "Active"}, {"measurement": "inhibition", "setting": "[6]", "value": "Dose-dependent effect"}, {"measurement": "inhibition", "setting": "[7]", "value": "Dose-dependent effect"}, {"measurement": "Activity", "setting": "[8]", "value": "Active"}, {"measurement": "Activity", "setting": "[9]", "value": 0.4, "unit": "%"}, {"measurement": "viability at 6 µM", "setting": "[10]", "value": 91.5, "unit": "%"}, {"measurement": "Activity", "setting": "[11]", "value": 4.9, "unit": "%"}, {"measurement": "viability at 9 µM", "setting": "[12]", "value": 60.6, "unit": "%"}, {"measurement": "Activity", "setting": "[13]", "value": 2.6, "unit": "%"}, {"measurement": "fold change (FC)", "setting": "[14]", "value": 4.09}, {"measurement": "half-life", "setting": "[15]", "value": 9.8, "unit": "h"}, {"measurement": "half-life", "setting": "[16]", "value": 11.8, "unit": "h"}, {"measurement": "AUC(0-t)", "setting": "[17]", "value": 468, "unit": "ng·h/mL"}, {"measurement": "AUC", "setting": "[18]", "value": 329.9, "unit": "ng·h/mL"}, {"measurement": "bioavailability", "setting": "[19]", "value": 5.6, "unit": "%"}, {"measurement": "inhibition in vivo at 10 mg/kg", "setting": "[20]", "value": 27.1, "unit": "%"}]}
